From ChEMBL document CHEMBL1201862, “PubChem BioAssay data set” (2004)
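All cell lines were grown in 96-well plates and treated with compound for 48 hours. At the GI50, growth is halved.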 Activity calls are given as the source filed them. Cut-off read from the data, not from the text of the source: active = GI50 up to about 1.1 µM and inactive = higher.

Columns and labels:
Test in all cases: growth of human tumour cells (NCI), 48 h
[1] = tested on: OVCAR-3
[2] = tested on: SNB-75
[3] = tested on: SNB-19
[4] = tested on: M19-MEL
[5] = tested on: OVCAR-4
[6] = tested on: RPMI-8226
[7] = tested on: UACC-257
[8] = tested on: DMS-273
[9] = tested on: HCT-15
[10] = tested on: LXFL 529
[11] = tested on: 786-0
[12] = tested on: XF498
[13] = tested on: SK-MEL-28
[14] = tested on: NCI-H460
[15] = tested on: NCI-H23
[16] = tested on: KM-20L2
[17] = tested on: SK-MEL-2
[18] = tested on: K562
[19] = tested on: CCRF-CEM
[20] = tested on: SF-268
[21] = tested on: ACHN
[22] = tested on: UACC-62
[23] = tested on: DMS-114
[24] = tested on: NCI-H522
[25] = tested on: Malme-3M
[26] = tested on: SF-295
[27] = tested on: HCT-116
[28] = tested on: EKVX
[29] = tested on: RXF 393
[30] = tested on: IGROV-1
[31] = tested on: NCI-H226
[32] = tested on: CAKI-1
[33] = tested on: KM12
[34] = tested on: RXF 631
[35] = tested on: HOP-62
[36] = tested on: UO-31
[37] = tested on: OVCAR-8
[38] = tested on: HT-29
[39] = tested on: A549
[40] = tested on: SW-620
[41] = tested on: HCC 2998
[42] = tested on: LOX IMVI
[43] = tested on: A498
[44] = tested on: SK-MEL-5
[45] = tested on: OVCAR-5
[46] = tested on: M14
[47] = tested on: SF-539
[48] = tested on: SN12C
[49] = tested on: TK-10
[50] = tested on: COLO 205
[51] = tested on: MOLT-4
[52] = tested on: DLD-1
[53] = tested on: SNB-78
[54] = tested on: U-251
[55] = tested on: SK-OV-3
[56] = tested on: HL-60
[57] = tested on: HOP-92

Question: What does the source list for CCN(CC)CCC1(C2CCCCC2)CCC(=O)NC1=O (stereo not given)?
Answer: GI50 [1]: > 100 µM (inactive); GI50 [2]: > 100 µM (inactive); GI50 [3]: > 100 µM (inactive); GI50 [4]: > 100 µM (inactive); GI50 [5]: > 100 µM (inactive); GI50 [6]: > 100 µM (inactive); GI50 [7]: > 100 µM (inactive); GI50 [8]: > 100 µM (inactive); GI50 [9]: > 100 µM; GI50 [10]: > 100 µM (inactive); GI50 [11]: > 100 µM (inactive); GI50 [12]: > 100 µM (inactive); GI50 [13]: > 100 µM (inactive); GI50 [14]: > 100 µM (inactive); GI50 [15]: > 100 µM (inactive); GI50 [16]: > 100 µM (inactive); GI50 [17]: > 100 µM (inactive); GI50 [18]: > 100 µM (inactive); GI50 [19]: > 100 µM (inactive); GI50 [20]: > 100 µM (inactive); GI50 [21]: > 100 µM (inactive); GI50 [22]: > 100 µM (inactive); GI50 [23]: > 100 µM (inactive); GI50 [24]: > 100 µM (inactive); GI50 [25]: > 100 µM (inactive); GI50 [26]: > 100 µM (inactive); GI50 [27]: > 100 µM (inactive); GI50 [28]: > 100 µM (inactive); GI50 [29]: > 100 µM (inactive); GI50 [30]: > 100 µM (inactive); GI50 [31]: > 100 µM (inactive); GI50 [32]: > 100 µM (inactive); GI50 [33]: > 100 µM (inactive); GI50 [34]: > 100 µM (inactive); GI50 [35]: > 100 µM (inactive); GI50 [36]: > 100 µM (inactive); GI50 [37]: > 100 µM (inactive); GI50 [38]: > 100 µM (inactive); GI50 [39]: > 100 µM (inactive); GI50 [40]: > 100 µM (inactive); GI50 [41]: > 100 µM (inactive); GI50 [42]: > 100 µM (inactive); GI50 [43]: > 100 µM (inactive); GI50 [44]: > 100 µM (inactive); GI50 [45]: > 100 µM (inactive); GI50 [46]: > 100 µM (inactive); GI50 [47]: > 100 µM (inactive); GI50 [48]: > 100 µM (inactive); GI50 [49]: > 100 µM (inactive); GI50 [50]: > 100 µM (inactive); GI50 [51]: > 100 µM (inactive); GI50 [52]: > 100 µM (inactive); GI50 [53]: > 100 µM (inactive); GI50 [54]: > 100 µM (inactive); GI50 [55]: > 100 µM (inactive)

Question: Which results are given for O=C(c1ccccc1)c1c(C(=O)c2ccccc2)c(-c2ccccc2)c2c(-c3ccccc3)sc(-c3ccccc3)c2c1-c1ccccc1?
Answer: GI50 [1]: > 100 µM (inactive); GI50 [2]: > 100 µM (inactive); GI50 [3]: > 100 µM (inactive); GI50 [4]: > 100 µM (inactive); GI50 [5]: > 100 µM (inactive); GI50 [6]: > 100 µM (inactive); GI50 [7]: > 100 µM (inactive); GI50 [8]: > 100 µM (inactive); GI50 [9]: > 100 µM; GI50 [10]: > 100 µM (inactive); GI50 [11]: > 100 µM (inactive); GI50 [12]: > 100 µM (inactive); GI50 [13]: > 100 µM (inactive); GI50 [14]: > 100 µM (inactive); GI50 [15]: > 100 µM (inactive); GI50 [16]: > 100 µM (inactive); GI50 [18]: > 100 µM (inactive); GI50 [19]: > 100 µM (inactive); GI50 [20]: > 100 µM (inactive); GI50 [21]: > 100 µM (inactive); GI50 [22]: > 100 µM (inactive); GI50 [23]: > 100 µM (inactive); GI50 [24]: > 100 µM (inactive); GI50 [25]: > 100 µM (inactive); GI50 [26]: > 100 µM (inactive); GI50 [56]: > 100 µM (inactive); GI50 [27]: > 100 µM (inactive); GI50 [28]: > 100 µM (inactive); GI50 [29]: > 100 µM (inactive); GI50 [30]: > 100 µM (inactive); GI50 [31]: > 100 µM (inactive); GI50 [32]: > 100 µM (inactive); GI50 [33]: > 100 µM (inactive); GI50 [34]: > 100 µM (inactive); GI50 [35]: > 100 µM (inactive); GI50 [36]: > 100 µM (inactive); GI50 [37]: > 100 µM (inactive); GI50 [38]: > 100 µM (inactive); GI50 [39]: > 100 µM (inactive); GI50 [40]: > 100 µM (inactive); GI50 [41]: > 100 µM (inactive); GI50 [42]: > 100 µM (inactive); GI50 [43]: > 100 µM (inactive); GI50 [44]: > 100 µM (inactive); GI50 [45]: > 100 µM (inactive); GI50 [46]: > 100 µM (inactive); GI50 [47]: > 100 µM (inactive); GI50 [48]: > 100 µM (inactive); GI50 [57]: > 100 µM (inactive); GI50 [49]: > 100 µM (inactive); GI50 [50]: > 100 µM (inactive); GI50 [52]: > 100 µM (inactive); GI50 [53]: > 100 µM (inactive); GI50 [54]: > 100 µM (inactive); GI50 [55]: > 100 µM (inactive)
